Measurements: patent US7968097B2, “Identification of Hla-A2-presented T-cell epitopes derived from the oncofoetal antigen-immature laminin receptor protein and uses thereof” (Immatics Biotechnologies GmbH, priority 2005, dated 2011)
“And” between values parts separate entries of the source, which are not always exact repeats. Equal entries are not always repeated.

Legend:
[1] = tested on: T cells of HLA-A*0201+ patients with hematological malignancies; assay: IFN-γ ELISPOT, pooled HLA-A*0201+ AML, CLL and multiple myeloma patients; format: cell-based, human; conditions: 50 HLA-A*0201+ patients with hematological malignancies
Description: To determine the frequency of iLR1- and iLR2-specific T cells in HLAA*0201^+ AML, CLL and multiple myeloma patients, ELISPOT IFNI’ secretion assay (Tables 3-5) were performed.

[2] = tested on: T cells of CLL patients (Binet A); assay: IL-10-secreting peptide-specific T cells in CLL patients with early disease; format: cell-based, human; conditions: small series of CLL patients with early disease (Binet A); data not shown
Excerpt: The inventors are currently involved with experiments to elucidate more precisely a possible relationship between the occurrence of anti-OFA/iLRP-specific T cells secreting IFN-γ or IL10 and the stage of disease in patients with CLL and multiple myeloma.

[3] = tested on: CD8+ lymphocytes from peripheral blood of HLA-A2+ donors; assay: Tetramer analysis of microsphere driven expansion of peptide-specific CD8+ lymphocytes; format: cell-based, human; conditions: for Evaluable donors with clearly positive T-cell responses: of 5 evaluable HLA-A2+ donors, microspheres with anti-CD28 plus high density A*0201/peptide; for Evaluable stimulations with clearly positive T-cell responses: of 53 (RPS-001) or 54 (RPS-002) evaluable stimulations among all evaluable donors
Excerpt: 1×10^6 CD8+ enriched PBMCs per well of the healthy HLA-A2+ donor HBC-065 were stimulated weekly in one well with microspheres coupled to anti-CD28 plus high density tumor antigen A*0201/RPS-001 (upper panel) or high density tumor antigen A*0201/RPS-002 (lower panel) as shown before [Walter, S, et al. Cutting Edge: Predetermined avidity of human CD8 T cells expanded on calibrated MHC/anti-CD28-coated microspheres. J. Immunol. 171(10):4974-8, 2003] with minor modifications. After three stimulations in vitro, cells of both wells were stained with antibody CD8 FITC plus tetramer A*0201/RPS-001 APC and A*0201/RPS-002 PE. Cells are gated on the lymphocyte population (left and middle panel) or on the CD8+ lymphocyte population (right panel). Numbers represent percentage of tetramer^+ within CD8+ lymphocytes. RPS-001=LLAARAIVAI (SEQ ID-No. 1); RPS-002=ALCNTDSPL (SEQ ID-No. 2)
Table 6: Summary of tetramer analysis of microsphere driven expansions of A2/RPS-001 and A2/RPS-002 specific CD8^+ lymphocytes from peripheral blood. 1×10^6 CD8^+ enriched PBMCs per well were stimulated as in FIG. 12 with microspheres coupled to anti-CD28 plus high density tumor antigen A*0201/RPS-001 or high density tumor antigen A*0201/RPS-002. Indicated are number of evaluable HLA-A2^+ donors, number of evaluable donors with at least one clearly positive response, number of evaluable stimulations among all evaluable donors and number of evaluable stimulations with clearly positive responses. RPS001=LLAARAIVAI (SEQ ID-NO: 1); RPS-002=ALCNTDSPL (SEQ ID-NO: 2)

[4] = tested on: peptide-pulsed 51Cr-labelled T2 cells; assay: Cold target inhibition assay; format: cell-based, human
Excerpt: (§1) CTL derived from healthy HLA-A*0201^+ individuals were generated using a protocol described elsewhere (Zeis M, Siegel S, Schmitz M et al. Induction of cytotoxic T lymphocytes against hematologic neoplasms by survivin RNA-transfected dendritic cells. J Immunol. 2003; 170, 5391-5397.). For the induction of autologous OFA/ILR, peptide-specific CTL obtained from patients with AML and CLL, CD8^+ T cells were separated from PBMC using immunomagnetic beads (MACS®, Miltenyi, Bergisch-Gladbach, Germany), cultured with autologous OFA/iLR peptide-pulsed fully matured DC and restimulated with autologous peptide-pulsed PBMC in the presence of IL-2 (1 ng/ml, CellConcepts, Weisskirch, Germany). After at least four weekly restimulations, CTL reactivity was determined in a conventional 4 h ^51Chromium release assay. Cold target inhibition assays and antibody blocking experiments were performed as previously described (Zeis M, Siegel S, Schmitz M et al. Induction of cytotoxic T lymphocytes against hematologic neoplasms by survivin RNA-transfected dendritic cells. J Immunol. 2003; 170, 5391-5397.).
A cold target inhibition assay was performed. To examine whether ILR1-specific T cells lyse ILR1 peptide-pulsed T2 cells specifically and in the context of HLA-A*02, cold target inhibition assays were performed as follows: ^51Cr-labelled T2 cells were loaded with peptide in a concentration of 10 microgram peptide/10^6 T2 cells/ml. A total of 2×10^5 unlabelled, T2 cells, which had equally been loaded with the same or a control peptide, were then added in a volume of 50 microliter AIMV to 10^4 peptide-pulsed, ^51Cr-labelled T2 cells. Effector T cells specific for ILR1 were added and a ^51Cr-release assay was performed as described above.
A cold target inhibition assay was performed as described under “T2+ILR1” above.

[5] = tested on: CD8+ T cells of HLA-A*0201+ individuals; assay: Generation of peptide-specific CTL lines with peptide-pulsed matured DC; format: cell-based, human; conditions: for generation of CTL lines from healthy HLA-A*0201+ donors: fully matured DC pulsed with the peptide; for generation of autologous peptide-specific CTL lines from patients: one patient with CLL and another with AML, tested against autologous and allogeneic HLA-A2-matched target cells
Excerpt: The identification of T-helper cell epitopes of tumor associated antigens remains an important task in anti-tumor immunotherapy. To identify T cell-binding epitopes deduced from the OFA-iLR protein, 14 peptides were synthesized (see below) that were predicted by the computer programs PAProC (http://www.uni-tuebingen.de/uni/kxi/) and SYFPEITHY (http://www.syfpeithi.de) to bind to the HLA-A*0201 molecule.
as §1

[6] = tested on: PBMC of HLA-A*02 positive myeloma patients; assay: IFN-γ ELISPOT, myeloma patients; conditions: for # of positively stained spots (IFN-γ ELISPOT): Myeloma patients, HLA-A*02 positive, one value per patient (table line), T cells cultured seven days with IL-2; for samples with significant (>20) CTL responses against peptide: myeloma patient samples, IFN-γ ELISPOT
Description: To determine the frequency of OFA/iLR peptide-specific T cells in patients, ELISPOT-assays were performed using the Interferon-γ-ELISPOT-Kit (Becton Dickinson, Heidelberg, Germany) according to manufacturer's instructions.
Prior to analysis, T cells from patients and healthy donors had been kept in culture for seven days in the presence of Interleukin-2 (IL microgram/10^6 PBMC/milliliter).

[7] = hot target ILR1-peptide-pulsed T2, effectors ILR1-specific CTL, 10 microgram peptide/10^6 T2 cells/ml
[8] = hot target ILR2-peptide-pulsed T2, effectors ILR2-specific CTL

Row | Sequence | patients with significant levels of peptide-specific T cells [1] | IL-10-secreting T cells specific for the peptide [2] | Evaluable donors with clearly positive T-cell responses [3] | Evaluable stimulations with clearly positive T-cell responses [3] | competition of cold targets loaded with the peptide for lysis [4, 7] | competition of cold targets loaded with the peptide for lysis [4, 8] | generation of CTL lines from healthy HLA-A*0201+ donors [5] | generation of autologous peptide-specific CTL lines from patients [5] | # of positively stained spots (IFN-γ ELISPOT) [6] | samples with significant (>20) CTL responses against peptide [6]
1 | ALCNTDSPL (listed as Homo sapiens) [ILR2] | 40% | no relevant IL-10-secreting T cells | 1 | 1 | neither peptides irrelevant for ILR1-specific CTL (Survivin and ILR2), nor unloaded T2 cells, which display empty HLA-A*02 molecules on their cell surfaces, compete for lysis | compete with the primary target cells | CTL lines could be generated | could be generated eliciting efficient cytotoxic activity | 0 per 105 PBMC (4×) and 1 per 105 PBMC (2×) and 3 per 105 PBMC (2×) and 34 per 105 PBMC (3×) and 27 per 105 PBMC and 23 per 105 PBMC and 112 per 105 PBMC | 43%
2 | LLAARAIVAI (listed as Homo sapiens) [ILR1] | 50% | no relevant IL-10-secreting T cells | 5 | 29 | compete with the primary target cells | neither peptides irrelevant for ILR2-specific CTL (Survivin and ILR1), nor unloaded T2 cells, which display empty HLA-A*02 molecules on their cell surfaces, compete for lysis | CTL lines could be generated | could be generated eliciting efficient cytotoxic activity | 3 per 105 PBMC and 4 per 105 PBMC and 56 per 105 PBMC (2×) and 76 per 105 PBMC and 43 per 105 PBMC and 22 per 105 PBMC and 23 per 105 PBMC (2×) and 0 per 105 PBMC (2×) and 112 per 105 PBMC and 1 per 105 PBMC | 57%
